Broadly, the IC50 is the concentration needed to halve the response being measured.

Here are results for one molecule from patent publication US20240350458A1, “14-3-3 PROTEIN MODULATORS AS ANTITUMOR AGENTS” (priority 2021, published 2024).

For one assay, the system named is glioblastoma cell. To be noted: combined with temozolomide; cited from earlier work.
The subject of assay [1] is four human ATC cell lines. Nature of the assay: Cellular screening in four human ATC cell lines. To be noted: Homo sapiens; in one (i.e. SB17) to four (i.e. SB20b) cell lines of anaplastic thyroid cancer; read-out: IC50 value in ATC cell lines. The assay is classed as cell-based.
A further assay concerns 8505c. Nature of the assay: MTT assay, ATC cell line, fixed concentrations. It is filed as cell-based. To be noted: Homo sapiens, 48 h, read-out: % of proliferating cells. The protocol:
(§1) The compounds FC91, SB14, SB17, SB18, SB19, SB20, SB21 and FC85 were employed in a cellular screening at fixed concentration ranging from 20 nM to 20 μM.
(§2) Table 2: Four human thyroid cancer cell lines were incubated with FC91, SB14, SB17, SB18, SB19, SB20A, SB20b, SB21 and FC85 for 48 h at fixed concentration of 20,100 and 20000 nM and then assayed with MTT. Data are reported as % of proliferating cells.

In a further assay the test system is SW1736. Briefly: MTT assay, ATC cell line, fixed concentrations. The assay is classed as cell-based. To be noted: Homo sapiens, SW-1736, 48 h, read-out: % of proliferating cells. The protocol:
as §1, §2
For orientation: Tetrazolium assays rely on reduction of a dye to a coloured formazan, in cell work by metabolically active cells.

The subject of a further assay is Nthory. Briefly: MTT assay, ATC cell line, fixed concentrations. It is filed as cell-based. The conditions noted are these: Homo sapiens, 48 h, read-out: % of proliferating cells. The protocol: as §1, §2
The next assay relates to FRO. Briefly: MTT assay, ATC cell line, fixed concentrations. It is filed as cell-based. The conditions noted are these: Homo sapiens, 48 h, read-out: % of proliferating cells. The protocol:
as §1, §2

The test system of assay [2] is eight B-cell lymphoma cell lines. Nature of the assay: MTT proliferation assay, panel of eight B-cell lymphoma cell lines. The assay is classed as cell-based. The conditions noted are these: B-cell; read-out: IC50 in all eight lymphoma cell lines. The protocol: (§3) All the above compounds were tested in vitro for their anticancer activity against a panel of eight B-cell lymphoma cell lines by MTT proliferation assay. The tested cell lines belonging to mantle cell lymphoma (MCL: REC1, Z138), activated B-cell diffuse large B-cell lymphoma (ABC-DLBCL: R11, HBL1, U2932, TMD8), germinal center B-cell diffuse large B-cell lymphoma (GCB-DLBCL: SU-DHL-10, FARAGE) subtypes. In overall, MCL cell lines present Cyclin D1 overexpression, while ABC- and GCB-DLBCL's proliferation is BCR and BCL6/HDACs driven, respectively. At the RNA level, all tested lymphoma cell lines were characterized by an overexpression of 14-3-3 zeta as reported for B-cell lymphomas resistant to chemotherapeutic regimen.

In the next assay the test system is SUDHL10. Briefly: MTT proliferation assay, B-cell lymphoma cell line. To be noted: Homo sapiens, SU-DHL10; SUDHL10, 72 h of drug incubation. The assay is classed as cell-based. The protocol: as §3
The next assay deals with Z138. Briefly: MTT proliferation assay, B-cell lymphoma cell line. To be noted: Homo sapiens, Z-138; Z138, 72 h of drug incubation. It is filed as cell-based. The protocol: as §3
A further assay has as its system RI1. Nature of the assay: MTT proliferation assay, B-cell lymphoma cell line. The assay is classed as cell-based. To be noted: Ri-1; RI1, 72 h of drug incubation. The protocol: as §3
In the next assay the test system is HBL1. Briefly: MTT proliferation assay, B-cell lymphoma cell line. The assay is classed as cell-based. The conditions noted are these: HBL1, 72 h of drug incubation. The protocol:
as §3

A further assay has as its system FARAGE. Nature of the assay: MTT proliferation assay, B-cell lymphoma cell line. The assay is classed as cell-based. The conditions noted are these: 72 h of drug incubation. The protocol:
as §3

The subject of a further assay is U2932. Briefly: MTT proliferation assay, B-cell lymphoma cell line. The assay is classed as cell-based. To be noted: Homo sapiens; U2932, 72 h of drug incubation. The protocol:
as §3

The subject of another assay is REC1. Nature of the assay: MTT proliferation assay, B-cell lymphoma cell line. The assay is classed as cell-based. To be noted: Homo sapiens; REC1, 72 h of drug incubation. The protocol: as §3
For another assay, the system named is TMD8. Briefly: MTT proliferation assay, B-cell lymphoma cell line. It is filed as cell-based. To be noted: Homo sapiens; TMD8, 72 h of drug incubation. The protocol:
as §3

For `Cc1ccc(S(=O)(=O)Nc2ccc3c(c2)/C(=C/c2cnc[nH]2)C(=O)N3)cc1` [FC85, N-[(3Z)-3-(1H-imidazol-5-ylmethylidene)-2-oxo-2,3-dihydro-1H-indol-5-yl]-4-methylbenzenesulfonamide], in the assay on glioblastoma cell, the “inhibition of glioblastoma cell viability, combination vs single treatment” value was “significant increase in inhibition”. The IC50 in [1] was 100 to 20000 nM; in assay [2], less than 1000 nM; with SUDHL10 it was 600 nM; with Z138, 500 nM; in the assay with RI1, 500 nM; in the assay on HBL1, 600 nM. The half-inhibitory concentration (IC50) is 500 nM in the assay with FARAGE, 500 nM in the assay on U2932, 1000 nM in the assay with REC1 and 600 nM in the assay with TMD8. Besides, the viability at 0.02 µM with 8505c (20 nM) was found to be 80%; with SW1736 (SW1736, 20 nM), 90%; with Nthory (20 nM) it was 78%; in the assay on FRO (20 nM), 75%. Further, the viability at 0.1 µM in the assay with 8505c (100 nM) was 99%; with SW1736 (SW1736, 100 nM) it was 67%; with Nthory (100 nM), 83%; with FRO (100 nM) it was 98%. Further, the viability at 20 µM in the assay on 8505c (20000 nM) was determined as 36%; in the assay on SW1736 (SW1736, 20000 nM), 56%; with Nthory (20000 nM), 38%; in the assay with FRO (20000 nM) it was 42%.
